Test results reported in PubChem BioAssay (NCI).
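Assay format: 96-well plates, 48-hour exposure. GI50 marks 50% less growth. The concentration for full growth arrest is given as TGI.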

Key:
Assay in all cases: NCI tumour cell line growth inhibition, 48 h
[1] = system: 786-0 renal
[2] = system: A498 renal
[3] = system: A549 NSCLC
[4] = system: ACHN renal
[5] = system: BT-549 breast
[6] = system: CAKI-1 renal
[7] = system: CCRF-CEM leukemia
[8] = system: COLO 205 colon
[9] = system: DU-145 prostate
[10] = system: HCC-2998 colon
[11] = system: HCT-116 colon
[12] = system: HCT-15 colon
[13] = system: HL-60(TB) leukemia
[14] = system: HOP-62 NSCLC
[15] = system: HOP-92 NSCLC
[16] = system: HS 578T breast
[17] = system: HT29 colon
[18] = system: IGROV1 ovarian
[19] = system: K-562 leukemia
[20] = system: KM12 colon
[21] = system: LOX IMVI melanoma
[22] = system: M14 melanoma
[23] = system: MALME-3M melanoma
[24] = system: MCF7 breast
[25] = system: MDA-MB-231 breast
[26] = system: MDA-MB-435
[27] = system: MOLT-4 leukemia
[28] = system: NCI-H226 lung
[29] = system: NCI-H23 lung
[30] = system: NCI-H460 lung
[31] = system: NCI-H522 lung
[32] = system: NCI/ADR-RES ovarian
[33] = system: OVCAR-3 ovarian
[34] = system: OVCAR-4 ovarian
[35] = system: OVCAR-5 ovarian
[36] = system: OVCAR-8 ovarian
[37] = system: PC-3 prostate
[38] = system: RPMI-8226 leukemia
[39] = system: RXF 393 renal
[40] = system: SF-268 CNS
[41] = system: SF-295 CNS
[42] = system: SF-539 CNS
[43] = system: SK-MEL-2 melanoma
[44] = system: SK-MEL-28 melanoma
[45] = system: SK-MEL-5 melanoma
[46] = system: SK-OV-3 ovarian
[47] = system: SN12C renal
[48] = system: SNB-19 CNS
[49] = system: SNB-75 CNS
[50] = system: SR leukemia
[51] = system: SW-620 colon
[52] = system: T-47D breast
[53] = system: TK-10 renal
[54] = system: U251 CNS
[55] = system: UACC-257 melanoma
[56] = system: UACC-62 melanoma
[57] = system: UO-31 renal

## COc1cc[nH]c1/C=C1\C(=O)Nc2ccccc21
[1]
  GI50: 15.9 µM
  TGI: > 25 µM
[2]
  GI50: 5.34 µM
  TGI: > 25 µM
[3]
  GI50: 11.1 µM
  TGI: > 25 µM
[4]
  GI50: 3.5 µM
  TGI: > 25 µM
[5]
  GI50: 7.98 µM
  TGI: > 25 µM
[6]
  GI50: 1.04 µM
  TGI: > 11.5 µM
[7]
  GI50: 13.1 µM
  TGI: > 25 µM
[8]
  GI50: 14.1 µM
  TGI: > 25 µM
[9]
  GI50: 9.37 µM
  TGI: > 25 µM
[10]
  GI50: > 20.7 µM
  TGI: > 25 µM
[11]
  GI50: 5.66 µM
  TGI: > 25 µM
[12]
  GI50: 4.85 µM
  TGI: > 25 µM
[13]
  GI50: 6.58 µM
  TGI: > 25 µM
[14]
  GI50: > 19.3 µM
  TGI: > 25 µM
[15]
  GI50: 4.34 µM
  TGI: > 21 µM
[16]
  GI50: 5.91 µM
  TGI: > 25 µM
[17]
  GI50: 12.3 µM
  TGI: > 25 µM
[18]
  GI50: 8.48 µM
  TGI: > 25 µM
[19]
  GI50: 16.9 µM
  TGI: > 25 µM
[20]
  GI50: 0.948 µM
  TGI: > 25 µM
[21]
  GI50: 7.68 µM
  TGI: > 25 µM
[22]
  GI50: 4.98 µM
  TGI: > 25 µM
[23]
  GI50: 9.88 µM
  TGI: > 25 µM
[24]
  GI50: 5.79 µM
  TGI: > 25 µM
[25]
  GI50: 4.87 µM
  TGI: > 25 µM
[26]
  GI50: 9.01 µM
  TGI: > 25 µM
[27]
  GI50: 11 µM
  TGI: > 25 µM
[28]
  GI50: 7.14 µM
  TGI: > 25 µM
[29]
  GI50: 7.7 µM
  TGI: > 25 µM
[30]
  GI50: 8.85 µM
  TGI: > 25 µM
[31]
  GI50: 12.7 µM
  TGI: > 25 µM
[32]
  GI50: 15.5 µM
  TGI: > 25 µM
[33]
  GI50: > 21.5 µM
  TGI: > 25 µM
[34]
  GI50: 8.02 µM
  TGI: > 25 µM
[35]
  GI50: 15.3 µM
  TGI: > 25 µM
[36]
  GI50: 14.2 µM
  TGI: > 25 µM
[37]
  GI50: 8.78 µM
  TGI: > 25 µM
[38]
  GI50: 14.5 µM
  TGI: > 25 µM
[39]
  GI50: 5.33 µM
  TGI: > 25 µM
[40]
  GI50: 11.2 µM
  TGI: > 25 µM
[41]
  GI50: > 25 µM
  TGI: > 25 µM
[42]
  GI50: 7.02 µM
  TGI: > 25 µM
[43]
  GI50: 3.55 µM
  TGI: 15.7 µM
[44]
  GI50: 16 µM
  TGI: > 25 µM
[45]
  GI50: 10.9 µM
  TGI: > 25 µM
[46]
  GI50: 8.14 µM
  TGI: > 25 µM
[47]
  GI50: 7.36 µM
  TGI: > 25 µM
[48]
  GI50: > 25 µM
  TGI: > 25 µM
[49]
  GI50: 5.9 µM
  TGI: > 25 µM
[50]
  GI50: 6.44 µM
  TGI: > 22.7 µM
[51]
  GI50: 7.24 µM
  TGI: > 25 µM
[52]
  GI50: 4.05 µM
  TGI: > 25 µM
[53]
  GI50: 6.71 µM
  TGI: > 25 µM
[54]
  GI50: 4.17 µM
  TGI: > 25 µM
[55]
  GI50: 17.3 µM
  TGI: > 25 µM
[56]
  GI50: 8.58 µM
  TGI: > 25 µM
[57]
  GI50: 1.69 µM
  TGI: 24.6 µM
